Activity data for 3 compounds are collected here from ChEMBL document CHEMBL1122409, “Estrogen receptor binding and estrogenic/antiestrogenic effects of two new metabolites of nitromiphene, 2-[p-[2-nitro-1-(4-methoxyphenyl)-2-phenylvinyl]phenoxy]-N-ethylpyrrolidine” (J Med Chem, 1983).

The source made the active and inactive calls. The rule behind the calls is not given here.

The target in test [1] is T1, Estrogen receptor (Rattus norvegicus) (UniProt P06211+Q62986). Briefly: Displacement of [3H]estradiol from rat estrogen receptor; increased estrogenic activity. The format is protein assay.
For test [2], the target named is T1, Estrogen receptor (Rattus norvegicus). Briefly: Antagonistic effect against estradiol benzoate induced uterine weight gain in immature rats at 1E-6M; increased estrogenic activity. In kind it is functional. More on the design: scale not given: the % may be the effect or the level left.
Test [3] has the same target. Briefly: Displacement of [3H]estradiol from rat estrogen receptor; inactive. In kind it is protein assay. Background: Loss of bound radioactivity is the signal in a displacement assay; it reports binding, not function.
Test [4] has the same target. Briefly: Displacement of [3H]estradiol from rat estrogen receptor; modest estrogenic activity. The format is protein assay.
For test [5] the target is unchanged. Briefly: Antagonistic effect on estradiol benzoate induced uterine weight gain in immature rats at 1E-6M. The format is functional. More on the design: scale not given: the % may be the effect or the level left.

For the compound `COc1ccc(/C(=C(/c2ccccc2)[N+](=O)[O-])c2ccc(OCCN3CCCC3=O)cc2)cc1`, the outcome in test [1] was Active. This compound also displayed an Activity in test [2] of 43%. For `COc1ccc(C(C(=O)c2ccccc2)c2ccc(OCCN3CCCC3)cc2)cc1` (stereo not given), the outcome in test [3] was inactive. As to `COc1ccc(/C(=C(/c2ccccc2)[N+](=O)[O-])c2ccc(OCCN3CCCC3)cc2)cc1`, the Activity result in test [4] was “Weak activity”; in test [5], 11%.
